# Biological target: STK12 kinase domain (Homo sapiens, UniProt Q96GD4)
# Test: Fluorescence polarization titration of the fluorescent probe with STK12 kinase domain
# Format: binding
# Conditions: 25 nM probe, STK12 kinase domain serially diluted
# Protocol: Step one: Characterization of the Fluorescent Probe
# An absorbance spectrum is first evaluated for each probe. The excitation and emission spectra are then measured in order to identify the appropriate excitation and emission wavelengths for detecting the probe. An example of such a probe is 6-(2,7-difluoro-6-hydroxy-3-oxo-3H-xanthen-9-yl)-N-[6-(5-nitro-2-phenylamino-pyrimidin-4-ylamino)-hexyl]-isophthalamic acid where the excitation and emission maxima are 496 nm and 524 nm, respectively. These fluorescence spectra were measured on an SLM-8100 fluorimeter with the probe dissolved in an assay buffer (50 mM HEPES, pH 7.4, 100 mM NaCl, 5 mM MgCl2 5 % Glycerol, 200 mM TCEP and 0.01% (w/v) CHAPS, 2 % DMSO).
# The affinity of the probe for STK12 kinase domain was then determined in a titration experiment. The polarization assay is carried out in Corning® Costar® NBS 96-well solid black flat bottom plates. In this example, an LJL Analyst® assay detection system was used with filters appropriate for the excitation/emission characteristics of the fluorescent probe. STK12 kinase domain was serially diluted into wells containing 25 nM probe to cover a broad concentration range across the plate. In addition, several wells contain either probe alone or probe with the highest concentration of STK12 kinase domain. This is done in order to calculate the Qb/Qf ratio for the probe/kinase domain pair. […]
# Chain of STK12 kinase domain (Q96GD4 77-327 limits assumed): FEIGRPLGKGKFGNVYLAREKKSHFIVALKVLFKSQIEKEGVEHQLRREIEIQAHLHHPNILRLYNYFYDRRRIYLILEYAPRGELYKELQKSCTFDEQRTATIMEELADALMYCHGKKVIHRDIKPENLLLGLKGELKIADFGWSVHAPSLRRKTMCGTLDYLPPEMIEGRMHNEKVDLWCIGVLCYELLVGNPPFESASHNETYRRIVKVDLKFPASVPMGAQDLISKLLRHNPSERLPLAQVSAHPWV
smiles,measurement,value
"O=C(NCCCCCCNc1nc(Nc2ccccc2)ncc1[N+](=O)[O-])c1ccc(-c2c3cc(F)c(=O)cc-3oc3cc(O)c(F)cc23)c(C(=O)O)c1 [Compound G, 6-(2,7-difluoro-6-hydroxy-3-oxo-3H-xanthen-9-yl)-N-[6-(5-nitro-2-phenylamino-pyrimidin-4-ylamino)-hexyl]-isophthalamic acid]",binding of fluorescent probe to STK12 kinase domain,binds to the active site of STK12 kinase domain
